According to patent US7528159B2, “5-aryl pyridines as 11-beta inhibitors for the treatment of diabetes” (Hoffmann-La Roche Inc., priority 2004, dated 2009):

Target: T1, human 11beta-HSD1 (Homo sapiens, UniProt P28845)
T1 construct: made in house; host or cells: HEK293 cells (ATCC CRL-1573), transient transfection with lipofectamine; microsomal fraction used
Assay: Microsome assay (cortisone to cortisol conversion, ELISA)
Type: biochemical
Conditions: microsomes from HEK293 cells transiently expressing human 11beta-HSD1; 60 min, 37° C.; read-out: h 11-beta-HSD 1 IC50
Experimental: The cDNA encoding the human 11beta-HSD1 protein was cloned into the expression vector pcDNA3 (Stratagene). This construct (for details see Alex Odermatt et al.; J Biol. Chem., 1999, Vol. 274, Issue 40, 28762-28770) was used to transiently express the protein in HEK293 cells (ATCC number: CRL-1573, described in Graham, F. L., Smiley, J., Russell, W. C., Nairn, R.; (1977)) using lipofectamine. 48 h after transfection cells were washed twice with ice-cold PBS (Phosphate buffered Saline). To 1 volume of cell suspension in PBS 2 volumes of ice-cold lysis buffer (50 mM Tris; pH7.5; 1 mM EDTA; 100 mM NaCl) were added. The cells were lysed by Potter-homogenization (20 strokes). The resulting homogenate was sonicated with a tip sonicator (10% output; 2×30 sec.) and cleared by a low speed centrifugation (10 min×9000 g; 4° C.). The microsomal fraction was collected by a high speed centrifugation (60 min×110'000 g). […]
Microsomes isolated from HEK293 cells transiently expressing human 11beta-HSD1 (for details see above) were incubated in assay buffer (100 mM NaCl; 1 mM EDTA; 1 mM EGTA; 1 mM MgCl; 250 mM Sucrose; 20 mM Tris pH 7.4; Cortisone 50-200 nM and NADPH 1 mM) together with different concentrations of test substances. […] The amount of Cortisol produced in this assay was determined using a commercially available, ELISA-based Cortisol-detection kit (Distributed by Assay Design, Inc.). […]

T1 sequence (P28845 whole entry): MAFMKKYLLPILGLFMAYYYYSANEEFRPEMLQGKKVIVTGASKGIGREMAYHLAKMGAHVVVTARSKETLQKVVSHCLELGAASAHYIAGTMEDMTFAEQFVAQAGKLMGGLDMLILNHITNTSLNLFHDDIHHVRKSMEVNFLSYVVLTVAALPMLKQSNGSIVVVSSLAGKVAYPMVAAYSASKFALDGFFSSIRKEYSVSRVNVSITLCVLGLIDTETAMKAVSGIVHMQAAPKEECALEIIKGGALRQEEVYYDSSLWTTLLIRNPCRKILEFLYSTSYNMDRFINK

Row | IC50 [nM] | SMILES
1 | 3 | Cc1c(Cl)cccc1S(=O)(=O)Nc1ccc(-c2ccccc2Cl)cn1 [Example 2, 3-chloro-N-[5-(2-chloro-phenyl)-pyridin-2-yl]-2-methyl-benzenesulfonamide]
2 | 12 | Cc1cc(F)ccc1-c1ccc(NS(=O)(=O)c2cccc(Cl)c2)nc1C [Example 110, 3-Chloro-N-[5-(4-fluoro-2-methyl-phenyl)-6-methyl-pyridin-2-yl]-benzenesulfonamide]
